Measured values as given in patent US20040167162A1, “Uses for anti-malarial therapeutic agents” (priority 2001, published 2004).
Structures can show the parent of a compound that is named as a salt. Where two headings read alike, the source gives them in different places.

Tests used:
adenovirus = conditions: cited from earlier work
influenza viruses = conditions: cited from earlier work
human corona virus = conditions: cited from earlier work
rhinovirus [1] = conditions: in particular human tracheal epithelial cells, rhinovirus group 14; cited from earlier work
ICAM-1 = conditions: treated cells; cited from earlier work
rhinovirus [2] = experiment: Blocking of rhinovirus infection of epithelial cells; effective inhibitory concentrations (Tables 1 and 2, FIG. 3); format: cell-based
Source text: (§1) Rhinovirus capable of viral replication causes the release of the pro-inflammatory […] chemokines, IP-10 and RANTES from infected epithelial cells.
(§2) For purposes of illustration, the effects of targeted delivery as opposed to systemic delivery of a representative anti-malarial, hydroxychloroquine, for prevention of rhinovirus infection is compared. As shown in Tables 1 and 2 and in FIG. 3, the effective inhibitory concentrations of this agent ranges from about 50 to 1000 microM (or about 20 to 400 micrograms/ml). Safe oral dosing of anti-malarials, such as chloroquine and hydroxychloroquine yields serum levels far below these ranges: 0.6 to 0.9 microM for chloroquine and 1.4 to 1.5 microM for hydroxychloroquine (MacKenzie, A H, “Pharmacologic actions of the 4-aminoquinoline compounds”, Am J Med, 1983, July: 5-10). Moreover, the inventor has noted that oral or systemic administration of HCQ cannot provide adequate plasma levels of HCQ to achieveefficacious results. Even at doses nearly twice that used in humans, peak serum concentrations following intravenous of administration of 10 mg/kg HCQ in rats was only 2 mcg/ml (FIG. 4); in dogs, peak whole blood concentrations were less than 3 mcg/ml (FIG. 5).

[3] = cited from earlier work
[4] = set-up: species or system rats; conditions: rat, in vivo, iv, 10 mg/kg
Source text: FIG. 4 graphically depicts the mean whole blood concentration of HCQ following single day intravenous doses to male and female rats.
as §2

[5] = set-up: species or system dogs; conditions: dog, in vivo, iv
Source text: FIG. 5 graphically depicts the mean whole blood concentration of HCQ following single day intravenous doses to male and female dogs.
as §2

IP-10/RANTES = experiment: Effect of HCQ on IP-10/RANTES production in primary human epithelial cells with exposure to HRV-16; format: cell-based
Source text: FIG. 1 graphically depicts the effect of 50 μm HCQ in the elaboration of IP-10 and RANTES in primary human epithelial cells with exposure to human rhinovirus type 16.
as §1
(§3) For example, treatment with hydroxychloroquine blocks the elaboration of the pro-inflammatory chemokines, IP-10 and RANTES from both primary tonsillar and immortalized epithelial cell lines (Table 1 & 2, FIG. 1 & 2). Since these chemokines figure prominently in generation of inflammatory responses and symptoms, this effect has important therapeutic implications.

[6] = tested on: antigen-induced early (EAR) and late airway responses (LAR) and airway hyperresponsiveness (AHR); conditions: aerosolized; total dose of only 10 mg/d; cited from earlier work
Eosinophil = Eosinophil total superoxide production (FIG. 3); format: cell-based
Source text: FIG. 3 graphically depicts the effect of HCQ on Eosinophil total Superoxide production. In FIG. 3, nil refers to control, i.e., the absence of HCQ; PMA refers to phorbol myristic acetate; PAF refers to platelet activating factor, and SE refers to standard error of the mean. The data in FIG. 3 are presented as means±SE; n=3. The * indicates p<0.05; ** indicates p<0.01.
Anti-malarial agents also block the secondary aspects of rhinovirus infections. Without wishing to be bound, it is believed that they are inhibit by blocking the secondary events of viral infections.

asthma = conditions: oral; cited from earlier work
[7] = in vivo, po; cited from earlier work
IP-10 and RANTES = experiment: HCQ preincubation of BEAS-2B epithelial cells exposed to HRV-16, assayed for IP-10 and RANTES; format: cell-based, human; conditions: for IP-10: 6 hours preincubation / IP-10: 24 hours preincubation / RANTES: 6 hours preincubation: BEAS-2B
Protocol: FIG. 2 depicts graphically the effect of varying concentrations of HCQ preincubation on the elaboration of […] and RANTES in BEAS-2B epithelial cells exposed to human rhinovirus-16.
as §1, §3

## Cl.N [ammonium chloride]
adenovirus
  cellular infection by adenovirus: block cellular infection
Influenza viruses
  cellular infection by influenza viruses: block cellular infection
Human corona virus
  infection of human corona virus: block infection

## CO/C1=C\C(C)=C\[C@@H](C)[C@@H](O)[C@@H](C)C/C(C)=C/C=C/[C@H](OC)[C@@H]([C@@H](C)[C@@H](O)[C@H](C)[C@@]2(O)C[C@@H](O)[C@H](C)[C@@H](C(C)C)O2)OC1=O [bafilomycin A1]
adenovirus
  cellular infection by adenovirus: block cellular infection
Rhinovirus [1]
  infection by rhinovirus: inhibit infection
ICAM-1
  expression of ICAM-1: reduces expression
Influenza viruses
  cellular infection by influenza viruses: block cellular infection
Human corona virus
  infection of human corona virus: block infection

## CCN(CC)CCCC(C)Nc1ccnc2cc(Cl)ccc12 (stereo not shown) [chloroquine]
adenovirus
  cellular infection by adenovirus: block cellular infection
Rhinovirus [2]
  rhinovirus infection of epithelial cells: block rhinovirus infection
Influenza viruses
  cellular infection by influenza viruses: block cellular infection

## CCN(CCO)CCCC(C)Nc1ccnc2cc(Cl)ccc12 (stereo not shown) [hydroxychloroquine sulfate]
[3]
  solubility in water: readily soluble in water

## hydroxychloroquine [HCQ]
[4]
  peak serum concentrations: 2 µg/mL
Rhinovirus [2]
  rhinovirus infection of epithelial cells: block rhinovirus infection
[5]
  peak whole blood concentrations: less than 3 mcg/ml
IP-10/RANTES; HRV-16 + 50 microM HCQ, 24 hours of preincubation, primary human epithelial cells
  IP-10: hours of preincubation 24: 31 pg/mL
IP-10/RANTES; HRV-16 + 50 microM HCQ, 48 hours of preincubation, primary human epithelial cells
  IP-10: hours of preincubation 48: 112 pg/mL
IP-10/RANTES; HRV-16 + HCQ, 48 hours of preincubation, primary human epithelial cells
  RANTES: hours of preincubation 48: 509 pg/mL
IP-10/RANTES; primary epithelial cells treated, then infected with RV
  release of pro-inflammatory CXC chemokines: do not release
[6]
  effect in asthmatic sheep: therapeutic effects
Eosinophil
  concentration at which IL-5 or PAF induced eosinophil superoxide is inhibited: at least 0.5 mM
Eosinophil; conversion of the mM value
  concentration at which IL-5 or PAF induced eosinophil superoxide is inhibited: about 200 mcg/ml
asthma
  time of treatment after which therapeutic effect begins: > 22 weeks
[7]
  serum levels: 1400 to 1500 nM
IP-10 and RANTES; HRV-16 + 0.01 μM HCQ
  IP-10: 6 hours preincubation: 3084 pg/mL
  IP-10: 24 hours preincubation: 2506 pg/mL
  RANTES: 6 hours preincubation: 3326 pg/mL
IP-10 and RANTES; HRV-16 + 0.1 μM HCQ
  IP-10: 6 hours preincubation: 2914 pg/mL
  IP-10: 24 hours preincubation: 1814 pg/mL
  RANTES: 6 hours preincubation: 3128 pg/mL
IP-10 and RANTES; HRV-16 + 1 μM HCQ
  IP-10: 6 hours preincubation: 3045 pg/mL
  IP-10: 24 hours preincubation: 2098 pg/mL
  RANTES: 6 hours preincubation: 1994 pg/mL
IP-10 and RANTES; HRV-16 + 50 μM HCQ
  IP-10: 6 hours preincubation: 31 pg/mL
  IP-10: 24 hours preincubation: 31 pg/mL
  RANTES: 6 hours preincubation: 0 pg/mL
IP-10 and RANTES; pre-incubation of immortalized epithelial cells (BEAS-2B)
  release of pro-inflammatory CXC chemokines: has the same effect
